Test results taken from patent US20140065119A1, “METHODS AND COMPOSITIONS COMPRISING CYCLIC ANALOGUES OF HISTATIN 5 FOR TREATING WOUNDS” (THE UNIVERSITY OF WESTERN ONTARIO, priority 2010, published 2014).
Positions of bridges follow the written chain, without caps; N, C: chain ends. Residues, ends and D or L forms follow the SMILES beside them.

Tests used:
[1] = Tolerability in mice, intra-peritoneal injection; format: in vivo
Protocol: (§1) In addition, mice were able to withstand a concentration of 15 mg/kg of DB2121 when injected via an intra-peritoneal route. When injected into adult rats, a concentration of up to and including 1.5 mg/kg caused no harm when injected intra-venously.

[2] = tested on: Primary human neonatal foreskin epithelial cells; experiment: Toxicity in primary cells, phase contrast morphology; format: cell-based
Protocol: (§2) Toxicological studies of DB2121 in human cells were also undertaken. Primary human neonatal foreskin epithelial cells were used to examine DB2121 toxicity, using a method as described in Min et al. 2004. Nat Biotechnol 22:717-23, the contents of which are incorporated herein by reference. Briefly, when the cells were in log phase, (A) 50 μM DB2121, B) 50 μM Histatin H5, (C) 50 μM ketoconazole, or (D) DMSO was added to the culture medium. At 18 and 36 hours following addition of compound, the foreskin epithelial cells were imaged using phase contract microscopy at 20× magnification. Immediately following the image analysis, proteins were extracted, separated on SDS-PAGE gels, Western blotted, and probed for phosphorylated and non-phosphorylated ERK 1, 2 to monitor cell spreading/migration and/or proliferation of the foreskin keratinocytes. The experiments was repeated three times.

[3] = tested on: primary human foreskin epithelial cell culture; experiment: Viable cell number (trypan exclusion) in primary cell culture; format: cell-based; conditions: various concentrations, 0, 36 and 72 hours; vs 50 μM ketoconazole; FIG. 3
Protocol: To determine range of non-toxic concentrations of DB2121, various concentrations of DB2121, 50 μM ketoconazole or DMSO as a control were separately added to primary human foreskin epithelial cell culture. At 0, 36 and 72 hours after addition, the epithelial cells were titrated off the culture plate and the viable cell number was determined. The experiment was performed in triplicate. At 72 hours, the foreskin epithelial cells exposed to the various compounds were imaged at 20× magnification using phase contrast microscopy. For cell counting, the epithelial cells were stained with trypan exclusion stain to monitor cell viability.

[4] = tested on: phosphorylated ERK 1, 2; experiment: Western blot for phosphorylated ERK 1, 2 in primary cells; format: cell-based, human; conditions: 50 μM, primary cell lysates
Protocol: as §2
It was then investigated whether or not these phenotypes were reflected at the molecular level. The primary cells were lysed and monitored for a marker of proliferation namely, phosphorylated ERK 1, 2.

[5] = Stability in human saliva in vitro by mass spectrometry; format: in vitro ADME; conditions: 1 uM, 37° C.
Protocol: DB2121 cyclic analogue was determined to be stable in vitro in human saliva for at least 72 hours as determined by mass spectrometry. The cyclic analogue was incubated in human saliva at a concentration of 1 uM and at a temperature of 37° C. in vitro. At various time points from 0 to 72 hours, 1.0 ul aliquots were taken and injected directly into a Micromass Quattro Micro mass spectrometer. Data was collected for a total of 3 minutes. The data was then processed using Mass Lynx 4.0 Analysis software.
The expected average mass of the cyclic histatin analogue in its active form is expected to be 2557.93. […] The peaks within an acceptable error of approximately 1 mass unit corresponding to cyclic histatin analogue were 2556.95 at 0 hours, 2557.65 at 24 hours, and 2557.10 at 72 hours incubation.

[6] = Tolerability in adult rats, intra-venous injection; format: in vivo
Protocol: as §1

| Compound | concentration (dose) mice were able to withstand [1] | toxicity to human primary cells ([2]; working concentrations of 50 μM, conclusion from morphology and ERK studies) | toxicity in primary cultured cells (viable cell number) [3] | ERK 1, 2 activation (phosphorylated ERK 1, 2) vs control [4] | time stable in human saliva [5] | concentration (dose) that caused no harm [6] | cell morphology ([2]; 50 μM, 18 and 36 hours, phase contrast 20×) |
| --- | --- | --- | --- | --- | --- | --- | --- |
| N=C(N)NCCC[C@H](NC(=O)[C@H](Cc1c[nH]cn1)NC(=O)[C@@H]1CSSC[C@H](NC(=O)[C@H](Cc2c[nH]cn2)NC(=O)[C@H](Cc2c[nH]cn2)NC(=O)[C@@H](N)CCCNC(=N)N)C(=O)N[C@@H](Cc2ccc(O)cc2)C(=O)N[C@@H](CCCCN)C(=O)N[C@@H](CCCNC(=N)N)C(=O)N[C@@H](CCCCN)C(=O)N[C@@H](Cc2ccccc2)C(=O)N[C@@H](Cc2c[nH]cn2)C(=O)N[C@@H](CCC(=O)O)C(=O)N[C@@H](CCCCN)C(=O)N[C@@H](Cc2c[nH]cn2)C(=O)N[C@@H](Cc2c[nH]cn2)C(=O)N1)C(=O)NCC(=O)N[C@@H](Cc1ccc(O)cc1)C(=O)O [DB2121, N-RHHCYKRKFHEKHHCHRGY-C] (H-RHHCYKRKFHEKHHCHRGY-OH; disulfide 4-15; N-terminus and C-terminus assumed) | 15 mg/kg | non-toxic | minimal toxicity | not suppressed | at least 72 hours | ≤ 1.5 mg/kg | – |
| CC(=O)N1CCN(c2ccc(OCC3COC(Cn4ccnc4)(c4ccc(Cl)cc4Cl)O3)cc2)CC1 (centres unmarked) [ketoconazole, Ketoconazole, reference compound] | – | – | – | Significant inhibition of ERK 1, 2 activation | – | – | morphologically normal except when treated with ketoconazole |
